Measurements reported in patent publication US8440710B2, “HSL inhibitors useful in the treatment of diabetes” (Hoffmann-La Roche Inc., priority 2009, dated 2013).

The molecules below were run against T1, human HSL (Homo sapiens, UniProt Q05469) (assay: Human Hormone-Sensitive Lipase (HSL) enzyme inhibition assay (colorimetric, DMPT substrate)). Conditions: human full length HSL-His6, 2,3-dimercapto-1-propanol tributyrate substrate, 37° C. 20 minutes, absorbance at 405 nm; read-out: HSL hum IC50.
T1 construct: generate a full length human HSL ORF with a 3′-His6 tag; made in house; host or cells: High 5 insect cells (baculovirus, pFast-BAC)
T1 sequence (Q05469 1-1076): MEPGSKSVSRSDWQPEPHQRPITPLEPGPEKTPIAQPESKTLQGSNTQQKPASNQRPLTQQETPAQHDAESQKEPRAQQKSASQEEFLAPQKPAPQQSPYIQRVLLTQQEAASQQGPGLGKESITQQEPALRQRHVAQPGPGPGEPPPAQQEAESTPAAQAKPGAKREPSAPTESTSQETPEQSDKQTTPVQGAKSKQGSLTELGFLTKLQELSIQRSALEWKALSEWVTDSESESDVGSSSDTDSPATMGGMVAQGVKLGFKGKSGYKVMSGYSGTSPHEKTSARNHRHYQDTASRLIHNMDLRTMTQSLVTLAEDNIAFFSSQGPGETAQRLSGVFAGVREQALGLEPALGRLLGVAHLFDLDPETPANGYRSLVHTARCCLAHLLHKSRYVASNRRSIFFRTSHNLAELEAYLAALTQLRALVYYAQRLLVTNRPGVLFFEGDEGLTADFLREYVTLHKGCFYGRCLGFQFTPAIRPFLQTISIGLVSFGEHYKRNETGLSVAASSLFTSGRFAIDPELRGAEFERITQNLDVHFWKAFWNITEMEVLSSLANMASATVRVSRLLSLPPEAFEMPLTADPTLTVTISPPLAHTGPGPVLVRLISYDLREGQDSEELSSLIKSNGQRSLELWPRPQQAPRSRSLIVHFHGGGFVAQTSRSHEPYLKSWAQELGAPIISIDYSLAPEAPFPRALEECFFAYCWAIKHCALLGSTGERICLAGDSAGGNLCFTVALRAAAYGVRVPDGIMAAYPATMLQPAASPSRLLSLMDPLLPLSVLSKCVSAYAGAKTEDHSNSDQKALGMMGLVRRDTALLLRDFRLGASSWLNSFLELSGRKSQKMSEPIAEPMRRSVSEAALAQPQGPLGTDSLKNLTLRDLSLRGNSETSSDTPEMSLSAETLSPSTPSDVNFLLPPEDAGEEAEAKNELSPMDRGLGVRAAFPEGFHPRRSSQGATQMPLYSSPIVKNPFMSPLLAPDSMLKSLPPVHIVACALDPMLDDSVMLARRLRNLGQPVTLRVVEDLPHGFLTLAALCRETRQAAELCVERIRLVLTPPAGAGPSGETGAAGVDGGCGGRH
Format: biochemical
Method in brief: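 Full-length human HSL with C-terminal His6, expressed in baculovirus-infected High 5 cells and Ni-NTA purified, was added (15 ug/ml stock) to 1.5 mM DMPT in 100 mM MOPS pH 7.2, 0.2 mg/ml fatty acid-free BSA containing compound. After 20 min at 37 °C, DTNB with SDS/Triton X-100 was added; A405 read after 15 min at RT.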

| IC50 [nM] | Compound |
| --- | --- |
| 20 | CC(C)[C@]1(O)CC[C@]2(CCN(c3ccc([C@@H](O)C(F)(F)F)cc3)C2=O)CC1 [Example 135, (5α,8α)-8-Hydroxy-8-isopropyl-2-[4-((R)-2,2,2-trifluoro-1-hydroxy-ethyl)-phenyl]-2-aza-spiro[4.5]decan-1-one] |
| 2760 | CC(C)[C@]1(O)CC[C@@]2(CCN(c3ccc([C@@H](O)C(F)(F)F)cc3)C2=O)CC1 [Example 136, (5α,8β)-8-Hydroxy-8-isopropyl-2-(4-((R)-2,2,2-trifluoro-1-hydroxy-ethyl)-phenyl)-2-aza-spiro[4.5]decan-1-one] |
| 10 | CO[C@H](c1ccc(N2CC[C@]3(CC[C@@](O)(C(C)C)CC3)C2=O)cc1)C(F)(F)F [Example 137, (5α,8α)-8-Hydroxy-8-isopropyl-2-(4-((R)-2,2,2-trifluoro-1-methoxyethyl)phenyl)-2-aza-spiro[4.5]decan-1-one] |
| 100 | COC[C@]1(O)CC[C@]2(CCN(c3ccc([C@@H](O)C(F)(F)F)cc3)C2=O)CC1 [Example 138, (5α,8α)-8-Hydroxy-8-(methoxymethyl)-2-(4-((R)-2,2,2-trifluoro-1-hydroxyethyl)phenyl)-2-aza-spiro[4.5]decan-1-one] |
| 40 | COC[C@]1(O)CC[C@]2(CCN(c3ccc([C@@H](OC)C(F)(F)F)cc3)C2=O)CC1 [Example 139, (5α,8α)-8-Hydroxy-8-(methoxymethyl)-2-(4-((R)-2,2,2-trifluoro-1-methoxyethyl)phenyl)-2-aza-spiro[4.5]decan-1-one] |
| 160 | CCO[C@H](c1ccc(N2CC[C@]3(CC[C@@](O)(COC)CC3)C2=O)cc1)C(F)(F)F [Example 140, (5α,8α)-2-(4-((R)-1-Ethoxy-2,2,2-trifluoroethyl)phenyl)-8-hydroxy-8-(methoxymethyl)-2-aza-spiro[4.5]decan-1-one] |
| 30 | CCCO[C@H](c1ccc(N2CC[C@]3(CC[C@@](O)(COC)CC3)C2=O)cc1)C(F)(F)F [Example 141, (5α,8α)-8-Hydroxy-8-(methoxymethyl)-2-(4-((R)-2,2,2-trifluoro-1-propoxyethyl)phenyl)-2-aza-spiro[4.5]decan-1-one] |
| 10 | C=CC[C@]1(O)CC[C@]2(CCN(c3ccc(O[C@H](C)C(F)(F)F)cc3)C2=O)CC1 [Example 142, (5α,8α)-8-Allyl-8-hydroxy-2-[4-((R)-2,2,2-trifluoro-1-methyl-ethoxy)-phenyl]-2-aza-spiro[4.5]decan-1-one] |
| 1480 | C=CC[C@]1(O)CC[C@@]2(CCN(c3ccc(O[C@H](C)C(F)(F)F)cc3)C2=O)CC1 [Example 143, (5α,8β)-8-Allyl-8-hydroxy-2-[4-((R)-2,2,2-trifluoro-1-methyl-ethoxy)-phenyl]-2-aza-spiro[4.5]decan-1-one] |
| 10 | C[C@@H](Oc1ccc(N2CC[C@]3(CC[C@@](O)(COCc4ccccc4)CC3)C2=O)cc1)C(F)(F)F [Example 144, (5α,8α)-8-(Benzyloxymethyl)-8-hydroxy-2-[4-((R)-2,2,2-trifluoro-1-methyl-ethoxy)-phenyl]-2-aza-spiro[4.5]decan-1-one] |
| 390 | C[C@@H](Oc1ccc(N2CC[C@]3(CC[C@@](O)(CO)CC3)C2=O)cc1)C(F)(F)F [Example 145, (5α,8α)-8-Hydroxy-8-(hydroxymethyl)-2-[4-((R)-2,2,2-trifluoro-1-methyl-ethoxy)-phenyl]-2-aza-spiro[4.5]decan-1-one] |
| 20 | COC[C@]1(O)CC[C@]2(CCN(c3ccc(O[C@@H](C)C(F)(F)F)cc3)C2=O)CC1 [Example 146, (5α,8α)-8-Hydroxy-8-methoxymethyl-2-[4-((S)-2,2,2-trifluoro-1-methyl-ethoxy)-phenyl]-2-aza-spiro[4.5]decan-1-one] |
| 30 | COC[C@]1(O)CC[C@]2(CCN(c3ccc(O[C@H](C)C(F)(F)F)cc3)C2=O)CC1 [Example 147, (5α,8α)-8-Hydroxy-8-(methoxymethyl)-2-[4-((R)-2,2,2-trifluoro-1-methyl-ethoxy)-phenyl]-2-aza-spiro[4.5]decan-1-one] |
| 20 | CC(C)[C@]1(O)CC[C@]2(CCN(c3ccc(O[C@@H](C)C(F)(F)F)nc3)C2=O)CC1 [Example 148, (5α,8α)-8-Hydroxy-8-isopropyl-2-[6-((S)-2,2,2-trifluoro-1-methyl-ethoxy)pyridin-3-yl]-2-aza-spiro[4.5]decan-1-one] |
| 1650 | CC(C)[C@]1(O)CC[C@@]2(CCN(c3ccc(O[C@@H](C)C(F)(F)F)nc3)C2=O)CC1 [Example 149, (5α,8β)-8-Hydroxy-8-isopropyl-2-[6-((S)-2,2,2-trifluoro-1-methyl-ethoxy)pyridin-3-yl]-2-aza-spiro[4.5]decan-1-one] |
| 20 | CC(C)[C@]1(O)CC[C@]2(CCN(c3ccc(O[C@H](C)C(F)(F)F)nc3)C2=O)CC1 [Example 150, (5α,8α)-8-Hydroxy-8-isopropyl-2-[6-((R)-2,2,2-trifluoro-1-methyl-ethoxy)-pyridin-3-yl]-2-aza-spiro[4.5]decan-1-one] |
| 1850 | CC(C)[C@]1(O)CC[C@@]2(CCN(c3ccc(O[C@H](C)C(F)(F)F)nc3)C2=O)CC1 [Example 151, (5α,8β)-8-Hydroxy-8-isopropyl-2-[6-((R)-2,2,2-trifluoro-1-methyl-ethoxy)pyridin-3-yl]-2-aza-spiro[4.5]decan-1-one] |
| 50 | COC[C@]1(O)CC[C@]2(CCN(c3ccc(O[C@H](C)C(F)(F)F)nc3)C2=O)CC1 [Example 152, (5α,8α)-8-Hydroxy-8-methoxymethyl-2-[6-((R)-2,2,2-trifluoro-1-methyl-ethoxy)-pyridin-3-yl]-2-aza-spiro[4.5]decan-1-one] |
| 50 | COC[C@]1(O)CC[C@]2(CCN(c3ccc(O[C@@H](C)C(F)(F)F)nc3)C2=O)CC1 [Example 153, (5α,8α)-8-Hydroxy-8-methoxymethyl-2-[6-((S)-2,2,2-trifluoro-1-methyl-ethoxy)-pyridin-3-yl]-2-aza-spiro[4.5]decan-1-one] |
| 30 | COC[C@]1(O)CC[C@]2(CCN(c3ccc(CC(F)(F)F)cc3)C2=O)CC1 [Example 154, (5α,8α)-8-Hydroxy-8-methoxymethyl-2-[4-(2,2,2-trifluoro-ethyl)-phenyl]-2-aza-spiro[4.5]decan-1-one] |
| 9 | O=C1N(c2ccc([C@@H](O)C(F)(F)F)cc2)CC[C@]12CC[C@@](O)(COCC(F)(F)F)CC2 [Example 155, (5α,8α)-8-Hydroxy-8-(2,2,2-trifluoro-ethoxymethyl)-2-[4-((R)-2,2,2-trifluoro-1-hydroxy-ethyl)-phenyl]-2-aza-spiro[4.5]decan-1-one] |
| 60 | CN(C)C(=O)C[C@]1(O)CC[C@]2(CCN(c3ccc(OC(F)(F)F)cc3)C2=O)CC1 [Example 156, 2-[(5α,8α)-8-Hydroxy-1-oxo-2-(4-trifluoromethoxy-phenyl)-2-aza-spiro[4.5]dec-8-yl]-N,N-dimethyl-acetamide] |
| 250 | CN(C)C(=O)C[C@]1(O)CC[C@]2(CCN(c3ccc(OCC(F)(F)F)cc3)C2=O)CC1 [Example 157, 2-((5α,8α)-8-Hydroxy-1-oxo-2-(4-(2,2,2-trifluoroethoxy)phenyl)-2-aza-spiro[4.5]decan-8-yl)-N,N-dimethylacetamide] |
| 340 | CNC(=O)C[C@]1(O)CC[C@]2(CCN(c3ccc(OCC(F)(F)F)cc3)C2=O)CC1 [Example 158, 2-((5α,8α)-8-Hydroxy-1-oxo-2-(4-(2,2,2-trifluoroethoxy)phenyl)-2-aza-spiro[4.5]decan-8-yl)-N-methylacetamide] |
| 20 | CC(C)OC[C@]1(O)CC[C@]2(CCN(c3ccc([C@@H](O)C(F)(F)F)cc3)C2=O)CC1 [Example 159, (5α,8α)-8-Hydroxy-8-isopropoxymethyl-2-[4-((R)-2,2,2-trifluoro-1-hydroxy-ethyl)-phenyl]-2-aza-spiro[4.5]decan-1-one] |
| 300 | O=C1N(c2ccc([C@@H](O)C(F)(F)F)cc2)CC[C@]12CC[C@@](O)(COCC(F)F)CC2 [Example 160, (5α,8α)-8-(2,2-Difluoro-ethoxymethyl)-8-hydroxy-2-[4-((R)-2,2,2-trifluoro-1-hydroxy-ethyl)-phenyl]-2-aza-spiro[4.5]decan-1-one] |
